“And” between values parts separate entries of the source, which are not always exact repeats. Equal entries are not always repeated. Inconclusive results and toxic doses are left out.
Tested on: BDF1 mice, P388 leukemia ip, median survival T/C
Assay: NCI In Vivo Anticancer Drug Screen. Data for tumor model P388 Leukemia (intraperitoneal) in B6D2F1 (BDF1) mice
Conditions: endpoint: median survival time, higher = longer survival
In short: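 Survival ratio, drug arm over vehicle arm, in mice with a transplanted tumour.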

[1] = dose: 400.0 mg/kg/injection, schedule: Q01DX009 (ip), vehicle: saline with Tween-80
[2] = dose: 100.0 mg/kg/injection, schedule: Q01DX009 (ip), vehicle: saline with Tween-80
[3] = dose: 200.0 mg/kg/injection, schedule: Q01DX009 (ip), vehicle: saline with Tween-80
[4] = dose: 50.0 mg/kg/injection, schedule: Q01DX009 (ip), vehicle: saline with Tween-80

## NC(CSC(c1ccccc1)(c1ccccc1)c1ccccc1)C(=O)NCC(=O)O (centres undefined)
dose: 177.0 mg/kg/injection, schedule: Q01DX009 (ip), vehicle: saline with Tween-80
  T/C: 111 % of control
[1]
  T/C: 107 % of control

## O=S1(=O)CC2(N3CCOCC3)CCCCC21 (centres undefined)
[2]
  T/C: 100 % of control
[3]
  T/C: 100 % of control
[1]
  T/C: 112 % of control

## O=S(=O)(Nc1ccccc1Cl)c1ccccc1
dose: 100.0 mg/kg/injection, schedule: Q04DX003 (ip), vehicle: gum acacia
  T/C: 111 % of control
dose: 200.0 mg/kg/injection, schedule: Q04DX003 (ip), vehicle: gum acacia
  T/C: 96 % of control
dose: 400.0 mg/kg/injection, schedule: Q04DX003 (ip), vehicle: gum acacia
  T/C: 111 % of control

## CCOCc1nc2nc(Cl)c(Cl)nc2[nH]1
dose: 12.5 mg/kg/injection, schedule: Q01DX009 (ip), vehicle: saline with Tween-80
  T/C: 89 % of control and 99 % of control
dose: 25.0 mg/kg/injection, schedule: Q01DX009 (ip), vehicle: saline with Tween-80
  T/C: 89 % of control and 100 % of control
dose: 25.0 mg/kg/injection, schedule: Q04DX003 (ip), vehicle: saline with Tween-80
  T/C: 100 % of control
[4]
  T/C: 86 % of control and 104 % of control and 105 % of control
dose: 50.0 mg/kg/injection, schedule: Q04DX003 (ip), vehicle: saline with Tween-80
  T/C: 98 % of control
[2]
  T/C: 100 % of control
dose: 100.0 mg/kg/injection, schedule: Q04DX003 (ip), vehicle: saline with Tween-80
  T/C: 98 % of control
dose: 200.0 mg/kg/injection, schedule: Q04DX003 (ip), vehicle: saline with Tween-80
  T/C: 89 % of control and 104 % of control

## Cc1c2oc3c(C)ccc(C(=O)NC4C(=O)NC(C(C)C)C(=O)N5CCCC5C(=O)N(C)CC(=O)N(C)C(C(C)C)C(=O)OC4C)c3nc-2c(C(=O)NC2C(=O)NC(C(C)C)C(=O)N3CCCC3C(=O)N(C)CC(=O)N(C)C(C(C)C)C(=O)OC2C)cc1=O (centres undefined)
dose: 0.24 mg/kg/injection, schedule: Q01DX009 (ip), vehicle: saline + alcohol
  T/C: 97 % of control
dose: 0.34 mg/kg/injection, schedule: Q01DX009 (ip), vehicle: saline + alcohol
  T/C: 101 % of control
dose: 0.49 mg/kg/injection, schedule: Q01DX009 (ip), vehicle: saline + alcohol
  T/C: 100 % of control
dose: 0.7 mg/kg/injection, schedule: Q01DX009 (ip), vehicle: saline + alcohol
  T/C: 112 % of control
dose: 1.0 mg/kg/injection, schedule: Q01DX009 (ip), vehicle: saline + alcohol
  T/C: 106 % of control
dose: 1.17 mg/kg/injection, schedule: Q04DX003 (ip), vehicle: saline + alcohol
  T/C: 107 % of control and 124 % of control
dose: 1.7 mg/kg/injection, schedule: Q04DX003 (ip), vehicle: saline + alcohol
  T/C: 104 % of control
dose: 1.94 mg/kg/injection, schedule: Q04DX003 (ip), vehicle: saline + alcohol
  T/C: 107 % of control
dose: 2.4 mg/kg/injection, schedule: Q01DX001 (ip), vehicle: saline + alcohol
  T/C: 112 % of control
dose: 3.4 mg/kg/injection, schedule: Q01DX001 (ip), vehicle: saline + alcohol
  T/C: 113 % of control
dose: 4.9 mg/kg/injection, schedule: Q04DX003 (ip), vehicle: saline + alcohol
  T/C: 150 % of control
dose: 5.4 mg/kg/injection, schedule: Q04DX003 (ip), vehicle: saline + alcohol
  T/C: 168 % of control
dose: 7.0 mg/kg/injection, schedule: Q04DX003 (ip), vehicle: saline + alcohol
  T/C: 169 % of control
dose: 9.0 mg/kg/injection, schedule: Q04DX003 (ip), vehicle: saline + alcohol
  T/C: 159 % of control and 176 % of control
dose: 10.0 mg/kg/injection, schedule: Q01DX001 (ip), vehicle: saline + alcohol
  T/C: 153 % of control
dose: 15.0 mg/kg/injection, schedule: Q04DX003 (ip), vehicle: saline + alcohol
  T/C: 183 % of control and 193 % of control

## COc1ccc(CN2CCCN(Cc3ccc(OC)cc3)S2)cc1
[4]
  T/C: 92 % of control
[2]
  T/C: 101 % of control
[3]
  T/C: 110 % of control

## Cc1cc(=O)[nH]c(N/N=C/c2ccc(O)cc2)n1
dose: 75.0 mg/kg/injection, schedule: Q01DX009 (ip), vehicle: Klucel (hydroxypropylcellulose) (HPC)
  T/C: 104 % of control
dose: 150.0 mg/kg/injection, schedule: Q01DX009 (ip), vehicle: Klucel (hydroxypropylcellulose) (HPC)
  T/C: 109 % of control
dose: 300.0 mg/kg/injection, schedule: Q01DX009 (ip), vehicle: Klucel (hydroxypropylcellulose) (HPC)
  T/C: 95 % of control

## C/C(=N\O)c1ccc2ccc3ccccc3c2c1
dose: 50.0 mg/kg/injection, schedule: Q04DX003 (ip), vehicle: saline sonified
  T/C: 104 % of control
dose: 100.0 mg/kg/injection, schedule: Q04DX003 (ip), vehicle: saline sonified
  T/C: 104 % of control
dose: 200.0 mg/kg/injection, schedule: Q04DX003 (ip), vehicle: saline sonified
  T/C: 100 % of control

## CCOC(=O)C1(C(=O)O)CC2C(C)C=CC(C)C2C1 (centres undefined)
dose: 100.0 mg/kg/injection, schedule: Q01DX009 (ip), vehicle: Klucel (hydroxypropylcellulose) (HPC)
  T/C: 95 % of control
dose: 200.0 mg/kg/injection, schedule: Q01DX009 (ip), vehicle: Klucel (hydroxypropylcellulose) (HPC)
  T/C: 110 % of control
dose: 400.0 mg/kg/injection, schedule: Q01DX009 (ip), vehicle: Klucel (hydroxypropylcellulose) (HPC)
  T/C: 100 % of control

Source: PubChem BioAssay AID328 (DTP/NCI, 2004)
